Each structure is given as a SMILES string.

For data set [1], the system named is MDCK II cells transiently transfected with hCNT2. As to the kind of experiment: MTS cell viability assay in hCNT2 transfected MDCK II cells. The data set is classed as cell-based, canine. To be noted: 24 h, 250–1000 μM, hCNT2 vs empty vector MDCK II cells. As for the experimental part:
The controls were prepared simultaneously.

The next data set has as its target T1, hOAT1 (Homo sapiens, UniProt Q4U2R8).
T1 sequence (Q4U2R8 1-563): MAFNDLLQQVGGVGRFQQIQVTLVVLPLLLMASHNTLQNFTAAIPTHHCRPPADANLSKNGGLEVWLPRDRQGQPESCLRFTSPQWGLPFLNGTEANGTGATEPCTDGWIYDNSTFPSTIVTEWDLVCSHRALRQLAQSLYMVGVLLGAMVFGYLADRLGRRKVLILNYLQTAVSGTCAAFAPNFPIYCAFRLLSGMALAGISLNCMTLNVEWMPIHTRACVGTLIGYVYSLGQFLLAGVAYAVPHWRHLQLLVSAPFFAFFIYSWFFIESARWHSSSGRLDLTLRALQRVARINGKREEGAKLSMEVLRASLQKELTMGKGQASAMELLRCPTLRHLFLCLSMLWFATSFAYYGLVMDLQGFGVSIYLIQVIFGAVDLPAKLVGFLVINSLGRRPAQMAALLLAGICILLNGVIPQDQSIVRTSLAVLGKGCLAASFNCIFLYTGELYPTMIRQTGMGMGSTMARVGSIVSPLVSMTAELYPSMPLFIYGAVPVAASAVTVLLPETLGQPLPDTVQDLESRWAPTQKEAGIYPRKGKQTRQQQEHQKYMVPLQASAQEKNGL
As to the kind of experiment: [3H]ETV uptake in hOAT1 transfected cells. Details: host or cells: HeLa cells, transient transfection. The data set is classed as in vitro ADME. To be noted: 5 min, 37°C.

The next data set addresses T2, hCNT2 (Homo sapiens, UniProt O43868).
T2 sequence (O43868 1-658): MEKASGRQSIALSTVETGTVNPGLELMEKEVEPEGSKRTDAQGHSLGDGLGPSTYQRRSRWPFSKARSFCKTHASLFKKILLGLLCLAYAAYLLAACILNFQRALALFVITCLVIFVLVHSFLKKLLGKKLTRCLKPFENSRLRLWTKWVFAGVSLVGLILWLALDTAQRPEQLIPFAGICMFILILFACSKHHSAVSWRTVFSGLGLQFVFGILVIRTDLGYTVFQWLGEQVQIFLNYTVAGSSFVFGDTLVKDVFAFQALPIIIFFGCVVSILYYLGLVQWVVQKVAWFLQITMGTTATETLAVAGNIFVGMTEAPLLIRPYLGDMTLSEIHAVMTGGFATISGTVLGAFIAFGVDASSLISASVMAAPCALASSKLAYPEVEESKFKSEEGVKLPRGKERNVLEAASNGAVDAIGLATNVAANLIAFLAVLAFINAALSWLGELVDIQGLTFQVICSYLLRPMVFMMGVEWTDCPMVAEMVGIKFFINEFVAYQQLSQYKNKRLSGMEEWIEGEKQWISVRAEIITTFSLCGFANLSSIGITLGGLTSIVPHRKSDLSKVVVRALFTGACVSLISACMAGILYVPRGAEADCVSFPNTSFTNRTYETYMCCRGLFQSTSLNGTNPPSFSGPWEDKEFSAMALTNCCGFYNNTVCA
As to the kind of experiment: Inhibition of [3H]uridine uptake in hCNT2 transfected MDCK II cells. The data set is classed as in vitro ADME. Details: host or cells: MDCK II cells, transient transfection. To be noted: 1 μM [3H]uridine, MDCK II cells transiently transfected with hCNT2, 2 min, 37°C; read-out: IC50, inhibition of hCNT2 mediated transport. As for the experimental part: Inhibitory transport assays were carried out in 24-well plates as described previously ([Mandikova et al., 2013]). Transport assays in HeLa cells transiently transfected with the hOAT1 expression construct were performed 48 h after transfection. Transport assays in MDCK II cells transiently transfected with hOCT2, hCNT2 or hCNT3 were performed 24 h after transfection. The cultivation medium was removed and the cells were washed with transport solution and preincubated for 10 min at 37°C. The standard radiolabeled substrate or tested radioactive antiviral substance dissolved in transport solution was added to the cells and incubated for 2 min. [^3H]PAH (1 μM) was used as a prototypical substrate for OATs, [^3H]MPP^+ (1 μM) for OCTs and [^3H]uridine (1 μM) for CNTs. […] After the designated time period, the incubation was stopped by washing the cells twice with ice-cold solution containing 137 mM NaCl and 10 mM HEPES, pH 7.4. The cells were disintegrated with 0.1 mL of Triton X 0.5% in 100 mM NaOH for 1 h.
IC50 values were calculated using non-linear regression analysis using GraphPad Prism software (version 6).

Take `C=C1[C@H](CO)[C@@H](O)C[C@@H]1n1cnc2c(=O)[nH]c(N)nc21` [ETV, Entecavir]: in data set [1], the “Effect of hCNT2 expression on cytotoxicity” value is recorded as “did not prove any significant increase in cytotoxicity”. Moreover, on hOAT1, the “Vmax of [3H]ETV uptake by hOAT1” value is listed as 0.91 nmol/mg protein/5 min. Also, the IC50 at hCNT2 is 242 µM.

The values are drawn from PMC4700268 (Frontiers in Pharmacology, 2016).
